In ChEMBL document CHEMBL1201862, “PubChem BioAssay data set” (2004):
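Tested at 5 concentrations; 48 h exposure; 96-well plates; endpoints linearly interpolated, else capped at highest concentration. GI50 is the concentration that inhibits growth by half.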 The source made the active and inactive calls. No stated cut-off is given here; in the data, active = GI50 up to about 1.1 µM and inactive = higher.

What was measured:
Assay in all cases: growth of human tumour cells (NCI), 48 h
[1] = system: NCI-H226
[2] = system: NCI-H460
[3] = system: PC-3
[4] = system: UACC-257
[5] = system: CCRF-CEM
[6] = system: MCF7
[7] = system: BT-549
[8] = system: RPMI-8226
[9] = system: SW-620
[10] = system: SF-539
[11] = system: UO-31
[12] = system: HL-60
[13] = system: A498
[14] = system: OVCAR-5
[15] = system: SF-295
[16] = system: HCT-15
[17] = system: RXF 393
[18] = system: HOP-62
[19] = system: COLO 205
[20] = system: HT-29
[21] = system: NCI/ADR-RES
[22] = system: M14
[23] = system: SK-MEL-5
[24] = system: DU-145
[25] = system: SF-268
[26] = system: SR
[27] = system: HOP-92
[28] = system: MDA-N
[29] = system: ACHN
[30] = system: SK-OV-3
[31] = system: A549
[32] = system: EKVX
[33] = system: UACC-62
[34] = system: KM12
[35] = system: T47D
[36] = system: OVCAR-3
[37] = system: Hs-578T
[38] = system: SK-MEL-28
[39] = system: HCT-116
[40] = system: SNB-19
[41] = system: Malme-3M
[42] = system: SNB-75
[43] = system: SK-MEL-2
[44] = system: U-251
[45] = system: NCI-H23
[46] = system: SN12C
[47] = system: IGROV-1
[48] = system: NCI-H522
[49] = system: OVCAR-8
[50] = system: TK-10
[51] = system: MDA-MB-435
[52] = system: 786-0
[53] = system: CAKI-1
[54] = system: LOX IMVI
[55] = system: OVCAR-4
[56] = system: MDA-MB-231
[57] = system: MOLT-4
[58] = system: K562

Measured: GI50

O=C1C(O)=C(C(CCc2ccccc2)C2=C(O)C(=O)c3ccccc3C2=O)C(=O)c2ccccc21
active: [12] 1.1 µM
40.9 µM: [16]
inactive: [1] > 100 µM | [2] 3.61 µM | [3] 68.7 µM | [4] 13.4 µM | [5] 37.9 µM | [6] 40.2 µM | [7] > 100 µM | [8] 16.1 µM | [9] 47.5 µM | [10] 58.5 µM | [11] > 100 µM | [13] 76.4 µM | [14] > 100 µM | [15] 6.11 µM | [17] > 100 µM | [18] 28.8 µM | [19] 28.4 µM | [20] 18.8 µM | [21] > 100 µM | [22] 11.5 µM | [23] 4.08 µM | [24] 8.55 µM | [25] 92.9 µM | [26] 16.9 µM | [27] 40 µM | [28] 16.2 µM | [29] 65.9 µM | [30] > 100 µM | [31] 33 µM | [32] 61.1 µM | [33] 13.7 µM | [34] > 100 µM | [35] > 100 µM | [36] 30.7 µM | [37] 5.32 µM | [38] > 100 µM | [39] 40 µM | [40] > 100 µM | [41] 4.27 µM | [42] 45.8 µM | [43] 35.5 µM | [44] 45.6 µM | [45] 3.65 µM | [46] 56 µM | [47] 34.6 µM | [48] 23.8 µM | [49] 57.1 µM | [50] > 100 µM | [51] 13.9 µM | [52] > 100 µM | [53] > 100 µM | [54] 5.26 µM | [55] 67.9 µM | [56] 66.8 µM

Cc1cc2ccc(OC(=O)c3ccc(NC(=N)N)cc3)cc2oc1=O
> 100 µM: [16]
inactive: [1] 26.4 µM | [2] 31.4 µM | [3] 28.6 µM | [4] 35.2 µM | [5] 30.5 µM | [6] 22.1 µM | [7] 26.3 µM | [8] 22.2 µM | [9] 24.7 µM | [10] 24.5 µM | [11] 52.4 µM | [12] 5.93 µM | [13] 21.2 µM | [14] 34.3 µM | [15] 46.5 µM | [17] 33.3 µM | [18] 18.7 µM | [19] 23.7 µM | [20] 26.6 µM | [21] > 100 µM | [57] 22.9 µM | [22] 28.8 µM | [23] 43.8 µM | [24] 76.9 µM | [25] 25.2 µM | [26] 22.5 µM | [27] 41.6 µM | [28] 29.2 µM | [29] > 100 µM | [30] 19.1 µM | [31] 36.2 µM | [32] 30.5 µM | [33] 26.9 µM | [34] 21.7 µM | [35] 26.8 µM | [36] 16.5 µM | [37] 25.9 µM | [38] 24 µM | [39] 24.1 µM | [40] 22.2 µM | [41] 22 µM | [42] 23.3 µM | [43] 25.4 µM | [58] 25.6 µM | [44] 21.6 µM | [45] 21.3 µM | [46] 23.6 µM | [47] 55 µM | [48] 18.3 µM | [49] 33.3 µM | [50] 22.5 µM | [51] 20 µM | [52] 25.1 µM | [53] 43.5 µM | [54] 30.8 µM | [55] 16.6 µM | [56] 22 µM

Cc1ncc([N+](=O)[O-])n1CCNS(=O)(=O)CCCn1ccnc1[N+](=O)[O-]
> 100 µM: [16]
inactive: [1] > 100 µM | [2] > 100 µM | [3] > 100 µM | [4] > 100 µM | [5] > 100 µM | [6] > 100 µM | [7] > 100 µM | [8] > 100 µM | [9] > 100 µM | [10] > 100 µM | [11] > 100 µM | [12] > 100 µM | [13] > 100 µM | [14] > 100 µM | [15] > 100 µM | [17] > 100 µM | [18] > 100 µM | [19] > 100 µM | [20] > 100 µM | [21] > 100 µM | [57] > 100 µM | [22] > 100 µM | [23] > 100 µM | [24] > 100 µM | [25] > 100 µM | [26] > 100 µM | [27] > 100 µM | [28] > 100 µM | [29] > 100 µM | [30] > 100 µM | [31] > 100 µM | [32] > 100 µM | [33] > 100 µM | [34] > 100 µM | [35] > 100 µM | [36] > 100 µM | [37] > 100 µM | [38] > 100 µM | [39] > 100 µM | [41] > 100 µM | [42] > 100 µM | [43] > 100 µM | [58] > 100 µM | [44] > 100 µM | [45] > 100 µM | [46] > 100 µM | [47] > 100 µM | [48] > 100 µM | [49] > 100 µM | [50] > 100 µM | [51] > 100 µM | [52] > 100 µM | [53] > 100 µM | [54] > 100 µM | [55] > 100 µM | [56] > 100 µM
